Where two headings read alike, the source gives them in different places.
What was measured:
[1] = tested on: PDE4; settings: cited from earlier work
[2] = cited from earlier work
[3] = tested on: adenylate cyclase (AC) isoforms; settings: cited from earlier work
[4] = tested on: PCSK1 transcript; assay: PCSK1 transcript levels in iPSC-derived neurons; type: cell-based, human
Protocol: FIGS. 6A-F are graphs showing that application of phosphodiesterase inhibitors to iPSC-derived neurons increases PCSK1 transcript levels and prohormone processing. […] FIGS. 6B-C: Roflumilast increases PCSK1 transcript levels in iPSC-derived neurons at Day 40 of differentiation (1043D3 line) at […] concentration. […] FIG. 6F: MK0952 applied at 10 μM in combination with 1 μM Forskolin increases PCSK1 transcript levels ˜2-fold in iPSC-derived neurons (1043D3 line).
Forskolin was applied to various cellular models and the results illustrate that it robustly and reliably increases PCSK1 transcript levels, PC1 protein levels, and functionally increases prohormone processing. PCSK1/Pcsk1 transcript levels increased between 2-3 fold in iPSC-derived neurons and primary mouse neurons exposed to 10 μM Forskolin (FIGS. 5A, C, D).
(§1) Cyclic AMP concentrations increased about 8.5-fold in iPSC-derived hypothalamic ARC neurons exposed to 10 μM Forskolin, supporting the inference that application of Forskolin increases PCSK1 transcript levels by raising cellular cAMP levels which in turn activate PCSK1's cAMP-response element promoter. FIG. 5A is a graph showing primary forebrain neurons were isolated from gestational day 19.5 (E19.5) embryos of wild type mice and cultured for 72 hours. Subsequently, cells were exposed to either 10 μM Forskolin or its vehicle, dimethyl sulfoxide (DMSO) for 20 hours. Pcsk1 transcript increased ˜2.5-fold in primary neurons exposed to Forskolin. FIG. 5B is a graph showing unaffected control hypothalamic arcuate-like (ARC) neurons (Hes Nkx2-1 hESC line) at day 37 (D37) of differentiation were treated with 10 μM Forskolin or vehicle for thirty minutes. Cyclic adenosine monophosphate (cAMP) levels were increased about 8.5-fold in cells exposed to Forskolin. […] Four hours of exposure yielded the maximal increase in upregulation, about 2.5-fold, of the time points tested.
However, the effect size of PDE inhibition on PCSK1 transcript levels is less than that induced by AC agonism with forskolin. […] Again, increased PCSK1 transcription due to combination treatment with Forskolin and Roflumilast also increases prohormone processing of POMC to ACTH (FIG. 6E).

[5] = tested on: cAMP; assay: cAMP levels in hypothalamic arcuate-like (ARC) neurons (Hes Nkx2-1 hESC line); type: cell-based, human; settings: 10 μM Forskolin, thirty minutes, day 37 of differentiation
Protocol: as §1, with “2.5-fold” for “˜2.5-fold”, “([…])” for “(D37)”

[6] = tested on: PC1; assay: PC1 protein levels in isolated islets from WT mice; type: cell-based, mouse; settings: isolated islets from wild type mice, 25 μM and 50 μM Forskolin
[7] = Ratio of circulating proinsulin:insulin in wild type mice; type: in vivo, mouse; settings: single administration, ~4 hour fasted wild type mice
Protocol: The first in vivo study with MK0952 administered by oral gavage while forskolin was administered intraperitoneally one time to ˜4 hour fasted wild type mice was completed. […] This difference likely reflects greater CNS penetrance of the MK0952, not the general relevance of a cyclase activator to therapy of PWS. No change in the ratio of circulating proinsulin:insulin was detected following administration MK0952 or Forskolin. Because the processing of proinsulin to insulin is already quite efficient in WT animals, it is in hindsight unlikely that it would further increase at fasting. However, these ‘baseline’ data are still valuable for assessing proinsulin to insulin processing under the setting of an intraperitoneal glucose tolerance test at […] glucose in both WT and Snord116^p−/m+ mice. Additionally, samples were collected for measurement of circulating cAMP levels, cortical proBDNF/BDNF, cerebellar Pcsk1, gastric Pcsk1, and gastric proghrelin/ghrelin, and finally pulmonary Pcsk1 transcript and cAMP levels.

[8] = tested on: PDE4; settings: read-out: IC50 (intrinsic potency, PDE4 inhibitor); cited from earlier work
[9] = tested on: whole blood; settings: cited from earlier work
[10] = cited from earlier work; remark: listed apart in the source

Structure (SMILES): CCOc1cc([C@@H](CS(C)(=O)=O)N2C(=O)c3cccc(NC(C)=O)c3C2=O)ccc1OC [Apremilast]
- PDE4 selectivity [1]: Selective
- Brain penetration ([2]; PDE4 inhibitors, Table 1A): None

Structure (SMILES): C=C[C@@]1(C)CC(=O)[C@]2(O)[C@@]3(C)[C@@H](O)CCC(C)(C)[C@@H]3[C@H](OC(=O)CCN(C)C)[C@H](OC(C)=O)[C@@]2(C)O1.Cl [FD5]
- AC isoforms activated [3]: AC5 (AC5 expressed in heart,

Structure (SMILES): C=C[C@@]1(C)CC(=O)[C@]2(O)[C@@]3(C)[C@@H](O)CCC(C)(C)[C@@H]3[C@H](O)[C@H](OC(C)=O)[C@@]2(C)O1 [Forskolin]
- maximal increase in PCSK1 upregulation ([4]; iPSC-derived neurons (line 1043D3), 10 μM Forskolin, four hours): about 2.5 fold
- PCSK1 transcript levels increase ([4]; iPSC-derived neurons exposed to 10 μM Forskolin): 2-3 fold
- cAMP levels increase [5]: about 8.5 fold
- PC1 protein levels increase [6]: ~3 fold
- Brain penetration ([2]; adenylate cyclase activators, Table 2): Yes

Structure (SMILES): CCn1ncc2c(NC3CCOCC3)c(-c3nnc(Cc4sc(C)nc4C)o3)cnc21 [GSK356278]
- PDE4 selectivity [1]: Selective
- Brain penetration ([2]; PDE4 inhibitors, Table 1A): Good

Structure (SMILES): CC(C)Cn1c(=O)n(C)c(=O)c2[nH]cnc21 [IBMX, 3-isobutyl-1-methylxanthine]
- PDE4 selectivity [1]: nonselective

Structure (SMILES): CC(C)C(=O)c1c(C(C)C)nn2ccccc12 [Ibudilast]
- Brain penetration ([2]; PDE4 inhibitors, Table 1A): Yes

Structure (SMILES): O=C(NC1CC1)c1cn(-c2cccc(-c3ccc([C@@H]4C[C@H]4C(=O)O)c(F)c3)c2)c2ncccc2c1=O [MK0952]
- PCSK1 transcription, MK0952 as single agent in vitro ([4]; iPSC-derived neurons): only been found to increase PCSK1 transcription in combination with Forskolin
- ratio of circulating proinsulin:insulin [7]: No change
- IC50 [8]: 0.6 nM
- IC50 [9]: 555 nM
- PDE4 selectivity [1]: selective
- Brain penetration ([2]; PDE4 inhibitors, Table 1A): brain-penetrant and yes

Structure (SMILES): CC(=O)N[C@@H](C)c1cc(Cl)ccc1C1CCN(C(=O)[C@@H]2CN(C(C)(C)C)C[C@H]2c2ccc(F)cc2F)CC1 [MK-0493]
- efficacy for weight loss in non-genetic obese [10]: animal models but limited

Structure (SMILES): O=C(Nc1c(Cl)cncc1Cl)c1ccc(OC(F)F)c(OCC2CC2)c1 [Roflumilast]
- PCSK1 transcript levels, single agent ([4]; iPSC-derived neurons Day 40 (1043D3 line), 1 mM): increases
- PDE4 selectivity [1]: Selective
- Brain penetration ([2]; PDE4 inhibitors, Table 1A): limited

Structure (SMILES): Cn1c(=O)c2[nH]cnc2n(C)c1=O [Theophylline]
- PCSK1 transcript levels, single agent ([4]; D34 iPSC-derived hypothalamic ARC neurons (1023A line), 10 mM): increases
